According to PubChem BioAssay AID248 (DTP/NCI, 2004):
Several values for one entry are separate records, joined by “and”; a condition that tells them apart may be missing. Equal values may be shown once. Toxic doses and inconclusive results are not listed. Rule as the data show it: active = T/C of 150% or more; inactive = T/C below 125%.

Test system: L1210 leukemia ip in BDF1 mice, survival T/C
Assay: NCI In Vivo Anticancer Drug Screen. Data for tumor model L1210 Leukemia (intraperitoneal) in B6D2F1 (BDF1) mice
Conditions: endpoint: mean survival time, higher = longer survival
Outline: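 Tumor was transplanted into mice, which were then dosed with test compound or vehicle alone. Survival was recorded for each group, and the treated figure was expressed relative to the control figure.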

[1] = dose: 20.0 mg/kg/injection, schedule: Q04DX003 (ip), vehicle: Klucel (hydroxypropylcellulose) (HPC)
[2] = dose: 40.0 mg/kg/injection, schedule: Q04DX003 (ip), vehicle: Klucel (hydroxypropylcellulose) (HPC)
[3] = dose: 80.0 mg/kg/injection, schedule: Q04DX003 (ip), vehicle: Klucel (hydroxypropylcellulose) (HPC)
[4] = dose: 100.0 mg/kg/injection, schedule: Q04DX003 (ip), vehicle: Klucel (hydroxypropylcellulose) (HPC)
[5] = dose: 5.0 mg/kg/injection, schedule: Q01DX001 (ip), vehicle: saline
[6] = dose: 10.0 mg/kg/injection, schedule: Q01DX001 (ip), vehicle: saline
[7] = dose: 100.0 mg/kg/injection, schedule: Q01DX009 (ip), vehicle: saline
[8] = dose: 100.0 mg/kg/injection, schedule: Q04DX003 (ip), vehicle: saline
[9] = dose: 200.0 mg/kg/injection, schedule: Q04DX003 (ip), vehicle: saline
[10] = dose: 400.0 mg/kg/injection, schedule: Q04DX003 (ip), vehicle: saline
[11] = dose: 50.0 mg/kg/injection, schedule: Q01DX001 (ip), vehicle: carboxymethylcellulose (CMC)
[12] = dose: 100.0 mg/kg/injection, schedule: Q01DX001 (ip), vehicle: carboxymethylcellulose (CMC)
[13] = dose: 200.0 mg/kg/injection, schedule: Q01DX001 (ip), vehicle: carboxymethylcellulose (CMC)
[14] = dose: 400.0 mg/kg/injection, schedule: Q01DX001 (ip), vehicle: carboxymethylcellulose (CMC)
[15] = dose: 100.0 mg/kg/injection, schedule: Q01DX001 (ip), vehicle: saline with Tween-80
[16] = dose: 200.0 mg/kg/injection, schedule: Q01DX001 (ip), vehicle: saline with Tween-80
[17] = dose: 400.0 mg/kg/injection, schedule: Q01DX001 (ip), vehicle: saline with Tween-80
[18] = dose: 100.0 mg/kg/injection, schedule: Q01DX009 (ip), vehicle: Klucel (hydroxypropylcellulose) (HPC)
[19] = dose: 200.0 mg/kg/injection, schedule: Q01DX009 (ip), vehicle: Klucel (hydroxypropylcellulose) (HPC)
[20] = dose: 400.0 mg/kg/injection, schedule: Q01DX009 (ip), vehicle: Klucel (hydroxypropylcellulose) (HPC)
[21] = dose: 100.0 mg/kg/injection, schedule: Q04DX002 (ip), vehicle: Klucel (hydroxypropylcellulose) (HPC)
[22] = dose: 200.0 mg/kg/injection, schedule: Q04DX002 (ip), vehicle: Klucel (hydroxypropylcellulose) (HPC)
[23] = dose: 400.0 mg/kg/injection, schedule: Q04DX002 (ip), vehicle: Klucel (hydroxypropylcellulose) (HPC)
[24] = dose: 100.0 mg/kg/injection, schedule: Q01DX009 (ip), vehicle: saline with Tween-80
[25] = dose: 200.0 mg/kg/injection, schedule: Q01DX009 (ip), vehicle: saline with Tween-80
[26] = dose: 100.0 mg/kg/injection, schedule: Q04DX003 (ip), vehicle: saline with Tween-80
[27] = dose: 200.0 mg/kg/injection, schedule: Q04DX003 (ip), vehicle: saline with Tween-80
[28] = dose: 400.0 mg/kg/injection, schedule: Q01DX009 (ip), vehicle: saline with Tween-80
[29] = dose: 400.0 mg/kg/injection, schedule: Q04DX003 (ip), vehicle: saline with Tween-80

Measured: T/C

O=C(NCCBr)NC1CC1c1ccccc1 (configuration not stated)
inactive: [1] 117 % of control | [2] 101 % of control | [3] 93 % of control | [4] 118 % of control

Cc1cc(Br)c2c(C)ccc(C)c2n1
inactive: dose: 2.0 mg/kg/injection, schedule: Q01DX001 (ip), vehicle: saline 98 % of control | [5] 102 % of control | [6] 96 % of control

CCC(COC(=O)c1ccc(N(CC)CC)cc1)NC1CCCCC1 (configuration not stated)
inactive: dose: 75.0 mg/kg/injection, schedule: Q01DX001 (ip), vehicle: carboxymethylcellulose (CMC) 95 % of control | dose: 150.0 mg/kg/injection, schedule: Q01DX001 (ip), vehicle: carboxymethylcellulose (CMC) 95 % of control | dose: 300.0 mg/kg/injection, schedule: Q01DX001 (ip), vehicle: carboxymethylcellulose (CMC) 94 % of control

CC(C)CC(C)NCC(C)O (configuration not stated)
inactive: dose: 75.0 mg/kg/injection, schedule: Q01DX001 (ip), vehicle: acid diluted with saline 100 % of control | dose: 150.0 mg/kg/injection, schedule: Q01DX001 (ip), vehicle: acid diluted with saline 100 % of control

O=C1OC(=O)C2C3C=CC(C4C=CC43)C12 (configuration not stated)
inactive: [7] 93 % of control | dose: 100.0 mg/kg/injection, schedule: Q04DX002 (ip), vehicle: saline with Tween-80 103 % of control | [8] 86 % of control | dose: 200.0 mg/kg/injection, schedule: Q01DX009 (ip), vehicle: saline 102 % of control | dose: 200.0 mg/kg/injection, schedule: Q04DX002 (ip), vehicle: saline with Tween-80 100 % of control | [9] 93 % of control | [10] 100 % of control

CC1([N+](=O)[O-])COP(=O)(NCc2ccccn2)OC1 (configuration not stated)
inactive: [11] 107 % of control | [12] 103 % of control | [13] 97 % of control | [14] 103 % of control

CCCC1(CC)CNC(=O)NC1=O (configuration not stated)
inactive: dose: 100.0 mg/kg/injection, schedule: Q01DX Z (ip), vehicle: saline 97 % of control | dose: 200.0 mg/kg/injection, schedule: Q01DX Z (ip), vehicle: saline 92 % of control

O=C(CCC(=O)c1ccccc1)c1ccccc1
inactive: [15] 100 % of control | [16] 98 % of control | [17] 95 % of control

O=C1C2CCN(CC2)C1CN1CCC(O)(c2ccc(Cl)cc2)CC1 (configuration not stated)
inactive: [4] 104 % of control | dose: 200.0 mg/kg/injection, schedule: Q04DX003 (ip), vehicle: Klucel (hydroxypropylcellulose) (HPC) 101 % of control

Cc1ccccc1[P+](Cc1ccccc1)(c1ccccc1)c1ccccc1
inactive: [5] 105 % of control | [6] 103 % of control | dose: 20.0 mg/kg/injection, schedule: Q01DX001 (ip), vehicle: saline 100 % of control

O=C(NCCO)NCCO
inactive: [8] 95 % of control | [9] 98 % of control | [10] 123 % of control

Cc1ccc(N2C(=O)C3C(C2=O)C2(Cl)C(Cl)=C(Cl)C3(Cl)C2(Cl)Cl)cc1Cl (configuration not stated)
inactive: [18] 94 % of control | [19] 87 % of control | [20] 92 % of control

CC(N)c1ccccc1 (configuration not stated) (tested in a mixture with another compound)
inactive: dose: 50.0 mg/kg/injection, schedule: Q01DX009 (ip), vehicle: saline 87 % of control | [7] 90 % of control

Cc1cccc(C)c1OC(=O)NC1CCCCC1
inactive: [21] 107 % of control | [22] 89 % of control | [23] 96 % of control

COc1cccc(OC)c1CCO
inactive: [11] 88 % of control | [12] 102 % of control | [13] 88 % of control | [14] 100 % of control

C=CS(=O)(=O)CCCC
inactive: [24] 97 % of control | [25] 101 % of control

NCCCCC(NC(=O)OCc1ccccc1)C(=O)CCl (configuration not stated)
inactive: dose: 10.0 mg/kg/injection, schedule: Q04DX002 (ip), vehicle: saline 109 % of control | dose: 20.0 mg/kg/injection, schedule: Q04DX002 (ip), vehicle: saline 95 % of control

Cc1ccc(S(=O)(=O)/N=S(/C)CC/S(C)=N/S(=O)(=O)c2ccc(C)cc2)cc1 (configuration not stated)
inactive: [18] 102 % of control | [19] 105 % of control | [20] 100 % of control

Cc1cccc(NC(=O)c2ccccc2Cl)c1C
inactive: [24] 103 % of control | [26] 95 % of control | [25] 95 % of control | [27] 93 % of control | [28] 104 % of control | [29] 91 % of control

O=C(/C=C\c1ccccc1)OCc1ccccc1CN1C=CCC1
inactive: [21] 86 % of control | [22] 104 % of control | [23] 86 % of control

CC(=O)C(CCC#N)(CCC#N)CCC#N
inactive: dose: 75.0 mg/kg/injection, schedule: Q01DX009 (ip), vehicle: saline 93 % of control | dose: 150.0 mg/kg/injection, schedule: Q01DX009 (ip), vehicle: saline 95 % of control | [9] 102 % of control | dose: 300.0 mg/kg/injection, schedule: Q01DX009 (ip), vehicle: saline 93 % of control | [10] 87 % of control

CCC(CO)NC(=O)/C=C/c1ccccc1Cl (configuration not stated)
inactive: [15] 95 % of control | [16] 100 % of control | [17] 92 % of control

Cc1cccc(NC(=O)Nc2ccccc2Cl)n1
inactive: [21] 87 % of control | [22] 87 % of control | [23] 90 % of control

Cc1cc(Cl)ccc1NS(=O)(=O)c1ccc(Br)cc1
inactive: [24] 97 % of control | [26] 102 % of control | [25] 98 % of control | [27] 100 % of control | [28] 93 % of control | [29] 96 % of control

CCCC#CCCCN1CCC2(CC1)C(=O)NCN2c1ccccc1
inactive: [1] 103 % of control | [2] 103 % of control | [3] 91 % of control | [4] 93 % of control

C=CC1C(C(=O)Nc2ccccc2)CN1C (configuration not stated)
inactive: [26] 107 % of control | [27] 107 % of control | [29] 116 % of control

O=C(COc1ccc(Cl)c(Cl)c1)NCc1cc[n+](Cc2ccc(S(=O)(=O)F)cc2)cc1
inactive: dose: 100.0 mg/kg/injection, schedule: Q01DX001 (ip), vehicle: Klucel (hydroxypropylcellulose) (HPC) 95 % of control | dose: 200.0 mg/kg/injection, schedule: Q01DX001 (ip), vehicle: Klucel (hydroxypropylcellulose) (HPC) 95 % of control

COC(=O)CCCc1ccc(N(CCO)CCF)cc1
inactive: dose: 25.0 mg/kg/injection, schedule: Q01DX001 (ip), vehicle: carboxymethylcellulose (CMC) 103 % of control | [11] 114 % of control | [12] 101 % of control | [13] 106 % of control

Cc1ccc(NC(=O)c2cc([N+](=O)[O-])cc([N+](=O)[O-])c2)c(C)c1
inactive: [21] 94 % of control | [22] 94 % of control | [23] 91 % of control

O=C(CI)Nc1ccc(Br)cc1
inactive: dose: 6.25 mg/kg/injection, schedule: Q01DX009 (ip), vehicle: Klucel (hydroxypropylcellulose) (HPC) 86 % of control | dose: 12.5 mg/kg/injection, schedule: Q01DX009 (ip), vehicle: Klucel (hydroxypropylcellulose) (HPC) 91 % of control | dose: 25.0 mg/kg/injection, schedule: Q01DX009 (ip), vehicle: Klucel (hydroxypropylcellulose) (HPC) 86 % of control | dose: 35.0 mg/kg/injection, schedule: Q01DX009 (ip), vehicle: Klucel (hydroxypropylcellulose) (HPC) 98 % of control

O=C(Oc1ccccc1)C(Cc1ccccc1)(Cc1ccccc1)C(=O)Oc1ccccc1
inactive: [12] 101 % of control | [13] 95 % of control | [14] 93 % of control

Cc1ccnc(NC(C#N)c2ccccc2)c1 (configuration not stated)
inactive: dose: 12.5 mg/kg/injection, schedule: Q01DX009 (ip), vehicle: saline with Tween-80 93 % of control | dose: 25.0 mg/kg/injection, schedule: Q01DX009 (ip), vehicle: saline with Tween-80 97 % of control | dose: 50.0 mg/kg/injection, schedule: Q01DX009 (ip), vehicle: saline with Tween-80 93 % of control and 100 % of control
